Where a SMILES comes first, the peptide text is derived from it. [ ]: non-standard residue; d: D form. Kyn = Nc1ccccc1C(=O)C[CH](N)C(=O)O
Tests used:
[1] = Absorbance spectrum (ultraviolet-visible spectroscopy, diode array detector); format: physicochemical; settings: for absorbance region (in words): FIG. 1 and 2
Description: High pressure liquid chromatography: Samples were suspended in ethanol (Sigma Aldrich 103343081, CAS 64-17-5) and injected onto a reverse phase base deactivated silica C-18 column, […], 150×4.6 mm (Hypersil 9867). This column was temperature controlled at 35° C. using a Shimadzu CTO-10A column oven. Samples were injected with a Shimadzu SIL-10AD VP auto injector. The program was run using a Shimadzu LC1-20AD pump system, and detection was monitored with ultraviolet-visible spectroscopy from 200 to 700 nm using a Shimadzu SPD-M20A diode array detector.

[2] = OxiSelect Hydroxyl Radical Antioxidant Capacity (HORAC) Activity Assay; format: biochemical; settings: for antioxidant potential (HORAC) compared with gallic acid: result in words
Text: An OxiSelect Hydroxyl Radical Antioxidant Capacity (HORAC) Activity Assay (Cell Biolabs Inc. catalog #STA-346-T) was used to determine the antioxidant potential of compound 4 (butyl 4-(2-aminophenyl)-2-(4-(2-aminophenyl)-2-butyramido-4-oxobutanamido)-4-oxobutanoate) following the manufacturer's protocol. Gallic Acid (GA) was used as antioxidant Calibrator: The HORAC assay was used to evaluate the application of the compounds of the invention as antioxidant.
A small amount of compound 4 was resuspended in assay diluent and the concentration determined using the extinction coefficient previously determined at 368 nm (6070 M^−1 cm^−1). The concentration of the stock solution was 624 μM. Three concentrations of the compound were tested in the assay: 468 μM, 312 μM, and 156 μM. The assay was run in a clear bottomed 96-well plate using a Molecular Devices SpectraMax M2 with an excitation wavelength of 480 nm and an emission wavelength of 530 nm. The emission wavelength cutoff was set to 515 nm. The photomultiplier sensitivity set to medium. The plate was read once a minute for 60 minutes.
Compounds 42, 43, 44, and 46, were tested for their antioxidant capacity as described as previously described using an OxiSelect Hydroxyl Radical Antioxidant Capacity (HORAC) Activity Assay (Cell Biolabs Inc. catalog #sta-346-T).

[3] = Determination of maximal UV absorbance, extinction coefficients and critical wavelengths (UV visible spectroscopy); format: physicochemical; settings: for peak absorbance: UV visible spectroscopy, diluted in ethanol; for critical wavelength: in vitro, 90% of the total absorbance integrated from 290 to 400 nm
Description: Extinction coefficients were determined by measuring the dry mass of each compounds and diluting it serially in ethanol (CAS […]). A series of concentrations were tested with UV visible spectroscopy.
In vitro critical wavelengths were determined by integrating the total absorbance from 290 to 400 nm and finding the region under that curve from higher energy to lower energy that is equal to 90% of the total absorbance, similar to that described by Diffey B. L., et al. J. Am. Acad. Dermatol. 2000, 43, 1024-1035.

[4] = test system: skin; assay: Skin protection against damage by UV (erythema); format: in vivo; settings: 10% (w/w) solution at 2 mg/cm^2 on skin, Sperti Sun Lamp 20 cm for 10 min, vs unprotected skin
Description: To test the protective capability of this class of compounds against damage to skin by UV, a 10% (w/w) solution of compounds was applied to skin at 2 mg/cm^2 and allowed to dry for 15 minutes. UV light was introduced using a […] Sun Lamp (model Miami P107). The application area on the skin was held facing the lamp at a distance of 20 cm for 10 min.

With COC(=O)C(CC(=O)c1ccccc1N)NC(=O)C(CC(=O)c1ccccc1N)NC(C)=O (centres unmarked) [Compound 1, methyl 2-(2-acetamido-4-(2-aminophenyl)-4-oxobutanamido)-4-(2-aminophenyl)-4-oxobutanoate] (Ac-[Kyn]-[Kyn]-OMe; configuration not given here) the “absorbance upper wavelength limit” value ([1]; FIG. 1) was “up to 410 nm” and the “absorbance region (in words)” value [1] was “strong absorbance in the UVA region”.
For CCCC(=O)Nc1ccccc1C(=O)CC(NC(C)=O)C(=O)NC(CC(=O)c1ccccc1NC(=O)CCC)C(=O)OC (centres unmarked) [Compound 2, Methyl 2-(2-acetamido-4-(2-butyramidophenyl)-4-oxobutanamido)-4-(2-butyramidophenyl)-4-oxobutanoate], the “absorbance region (in words)” value [1] was “strong absorbance in the UVB region”.
In the case of CCCCOC(=O)C(CC(=O)c1ccccc1N)NC(=O)C(CC(=O)c1ccccc1N)NC(=O)CCC (centres unmarked) [Compound 4, butyl 4-(2-aminophenyl)-2-(4-(2-aminophenyl)-2-butyramido-4-oxobutanamido)-4-oxobutanoate], the “antioxidant potential (HORAC)” value ([2]; tested at 468 μM, 312 μM and 156 μM, gallic acid as calibrator) was 1.8 gallic acid equivalents per mole, the peak absorbance [3] was “around 368 nm” and the critical wavelength [3] was 385 nm.
With CCCCOC(=O)C(CC(=O)c1ccccc1NC(=O)CCC)NC(=O)C(CC(=O)c1ccccc1NC(=O)CCC)NC(=O)CCC (centres unmarked) [Compound 5, butyl 2-(2-butyramido-4-(2-butyramidophenyl)-4-oxobutanamido)-4-(2-butyramidophenyl)-4-oxobutanoate] the peak absorbance [3] was “around 325 nm”, the critical wavelength [3] was 355 nm and the extinction coefficient ([3]; slope of absorbance vs concentration, in ethanol, at peak absorbance) was 4600 M⁻¹ cm⁻¹.
In the case of Nc1ccccc1C(=O)CC(NC(=O)CCC(=O)O)C(=O)O (centres unmarked) [Compound 42, 4-(2-aminophenyl)-2-(3-carboxypropanamido)-4-oxobutanoic acid], the “antioxidant potential (HORAC) compared with gallic acid” value [2] was “equal, or greater than, gallic acid” and the “erythema after UV exposure” value [4] was “significantly reduced erythema”.
For COC(=O)C(CC(=O)c1ccccc1N)NC(=O)C[N+](C)(C)C (centres unmarked) [Compound 43, 2-((4-(2-aminophenyl)-1-methoxy-1,4-dioxobutan-2-yl)amino)-N,N,N-trimethyl-2-oxoethan-1-aminium], the “antioxidant potential (HORAC) compared with gallic acid” value [2] was “equal, or greater than, gallic acid”.
With CC(=O)NC(CC(=O)c1ccccc1N)C(N)=O (centres unmarked) [Compound 44, 2-acetamido-4-(2-aminophenyl)-4-oxobutanamide] the “antioxidant potential (HORAC) compared with gallic acid” value [2] was “equal, or greater than, gallic acid”.
In the case of Nc1ccccc1C(=O)CC(NC(=O)CCCC(=O)O)C(=O)O (centres unmarked) [Compound 46, 5-((3-(2-aminophenyl)-1-carboxy-3-oxopropyl)amino)-5-oxopentanoic acid], the “antioxidant potential (HORAC) compared with gallic acid” value [2] was “equal, or greater than, gallic acid”.
